Data from patent US8232253B2, “Treatment of lung cancer” (Ramot at Tel-Aviv University Ltd., priority 2006, dated 2012).

Key:
[1] = tested on: A549 cells; test: A549-cell-implanted nude mouse model, tumor growth; format: in vivo, nude mice; conditions: gemcitabine alone 36 mg/kg i.p. every 4 days (FIG. 14D)
Description: Nude mice (6 weeks old) were housed in barrier facilities on a 12-h light/dark cycle. Food and water were supplied ad libitum. On day zero, A549 or HTB-58 cells (5×10^6 cells in 0.1 ml PBS) were implanted subcutaneously (s.c.) just above the right femoral joint. After 5 or 11 days the mice were separated randomly into control groups that had received only the vehicle and FTS-treated groups. Daily FTS treatments were administered either intraperitoneally (i.p.) or orally. Tumor volumes or weights were determined as described in Barkan, B., Starinsky, S., Friedman, E., Stein, R., Kloog, Y., Clin Cancer Res 12:5533-42 (2006). Gemcitabine treatment (36 mg/kg, i.p.) was administered every 4 days.
To determine whether FTS inhibited tumor growth in vivo, experiments were conducted using a nude mouse model. The lung cancer cells were implanted s.c. above the right femoral joint and the mice were then treated with FTS. In a first experiment, the effect of i.p. administration of FTS on tumor growth in A549 cells was assessed. Treatment was started 5 days after cell implantation, by which time the tumors were palpable. Tumor volumes were determined 24 days after implantation in two groups of mice (n=8) that had received daily i.p. administration of either the vehicle (control) or 10 mg/kg FTS.
In an additional set of experiments, the A549-cell-implanted nude mouse model was used to examine the effect of orally administered FTS on tumor growth. First, cells were implanted as described above and daily oral treatment with FTS (50 mg/kg; n=6) or vehicle (n=5) was started either 11 days (FIG. 14C) or 6 days (FIG. 14D) after implantation. […] Next, the effects of orally administered FTS, alone or in combination with gemcitabine, on A549-cell tumor growth was examined (FIG. 14D). Six days after cell implantation, mice were divided into four groups (n=8 per group) and treated orally with vehicle alone (control), FTS alone (60 mg/kg), vehicle and gemcitabine (36 mg/kg, i.p. every 4 days), or FTS and gemcitabine. Treatments with gemcitabine began 1 week after FTS treatment was started.

[2] = tested on: A549 cells; test: Drug combination experiments, live cell counting; format: cell-based, human; conditions: 4 h
Description: In drug combination experiments, cells were grown for 2 days in the absence or in the presence of 40 μM FTS and were then treated for 4 h with gemcitabine (100 or 200 nM), cisplatin (50 or 100 nM), doxorubicin (50 or 100 nM), or paclitaxel (2.5 or 5 nM). Live cells were counted after a further 3 days of incubation with or without FTS. Experiments were performed twice in quadruplicate. To determine whether A549 cells were resistant to apoptosis, an experiment to examine the survival of human lung cancer A549 cells after exposure to a chemotherapeutic agent in the presence of FTS was performed. Thus, to determine whether treatment with FTS can increase the sensitivity of A549 cells to cytotoxic drugs, A549 cells were incubated for 48 h with DMSO (control) or with 40 μM FTS, then for 4 h with gemcitabine, cisplatin, doxorubicin, or paclitaxel at the indicated concentrations. The cells were then washed and incubated for a further 72 h with DMSO or with 40 μM FTS. Live cells were collected and counted. The numbers of cells in the drug-treated cultures, expressed as percentages of the numbers in the vehicle-treated control, are shown in FIGS. 13A-13D. Values are means±SD. *P<0.05, **P<0.01, compared to vehicle-treated control.

Compound | effect on tumor weight [1] | reduction in cell numbers ([2]; gemcitabine alone 100 nM) | reduction in cell numbers ([2]; gemcitabine alone 200 nM) | reduction in cell numbers ([2]; cisplatin alone 50 nM) | reduction in cell numbers ([2]; cisplatin alone 100 nM)
Cl.Nc1ccn([C@@H]2O[C@H](CO)[C@@H](O)C2(F)F)c(=O)n1 [gemcitabine, 2′-deoxy-2′,2′-difluorocytidine monohydrochloride] | significant reduction in tumor weight | < 11% | < 11% |  | 
N.N.[Cl][Pt][Cl] [cisplatin, cis-diamminedichloroplatinum(II)] |  |  |  | 11±11% | 30±12.9%
